Reference: patent US20020132281A1, “Secretases related to alzheimer's dementia” (priority 1998, published 2002)
“Also recorded” adds a separate entry of the source. Square brackets hold non-standard residues; d marks the D form. Peptide text beside a SMILES is read from it. * marks the point of attachment. Sta = CC(C)C[C@H](N)[C@@H](O)CC(=O)O; Isovaleryl = CC(C)CC(=O)*

Columns and labels:
[1] = test system: β-secretase endoprotease activity in chromaffin vesicles; assay: Effect of reducing agent DTT on β-secretase endoprotease activity in chromaffin vesicle lysate; type: biochemical, bovine; conditions: 1 mM DTT vs absence of DTT; lysed vesicles
Description: The β-secretase endoprotease activity was identified by incubating the chromaffin vesicle lysate (2-10 μl of 10-20 mg protein/ml) with the Z*Val-Lys-Met-MCA substrate (100 μM final concentration) and detecting AMC fluorescence. The chromaffin vesicle lysate was prepared as described in Example I. The endoprotease activity was determined as a function of pH by varying the pH of the incubation solution between 3.0 to 8.0 in 0.5 pH increments. Citric acid, sodium phosphate, and Tris-HCl buffers (100 mM final concentration) were used to adjust the pH of the incubation solutions between 3.0 to 5.5, 6.0 to 7.5, and 8.0, respectively. […]
As discussed above, endoprotease cleavage between the Met-MCA bond in the Z*Val-Lys-Met-MCA substrate produces fluorescent AMC, but endoprotease cleavage between the Lys-Met or Val-Lys bonds in that substrate produces non-fluorescent Lys-Met-MCA and Met-MCA peptides. To insure that the latter two endoprotease cleavages were detected, aminopeptidase M (20 μg/ml final concentration, BOEHRINGER […]) was added to each incubation solutions to produce fluorescent AMC from the Lys-Met-MCA and Met-MCA peptides. […]
The effect of the reducing agent dithiothreitol (DTT) on β-secretase endoprotease activity was determined using the assay described in Example III. […]

[2] = test system: β-secretase endoprotease activity; assay: β-secretase endoprotease activity with/without DTT in fractions obtained during isolation of chromaffin vesicles; type: biochemical, bovine; conditions: pH 5.5
Description: The effect of the reducing agent dithiothreitol (DTT) on β-secretase endoprotease activity was determined using the assay described in Example III. Briefly, the lysed vesicles were incubated with the substrate Z*Val-Lys-Met-MCA in the presence or absence of 1 mM DTT and the resulting fluorescence plotted as a function of pH. Both with and without DTT, β-secretase endoprotease activity was detected and in both cases that activity had pH optimum of about 4.0 to 6.0, which is consistent with the intravesicular pH of chromaffin vesicles.
The β-secretase endoprotease activity of fractions obtained during the isolation procedure described in Example I was determined at the pH optimum of 5.5, with and without DTT using the assay described in Example VII.

[3] = test system: Peak I β-secretase endoprotease activity; assay: Protease inhibitors of β-secretase endoprotease activity in Peak I; type: biochemical, bovine; conditions: for Peak I (%) of control: control (no inhibitor) = 100
Description: (§1) The protease inhibitor was added to each assay at the start of the reaction at the appropriate concentration. The extent of inhibition was expressed as a percentage of the activity without the inhibitor (control).
(§2) The contents of the eluted Con-A bound fraction were fractioned according to molecular size using a Sephacryl S200 column (Krieger, T. K. and Hook, V. Y. H. ibid.) .

[4] = test system: Peak II β-secretase endoprotease activity; assay: Protease inhibitors of β-secretase endoprotease activity in Peak II; type: biochemical, bovine; conditions: for Peak II (%) of control: control (no inhibitor) = 100
Description: as §1, §2

[5] = test system: β-secretase endoprotease activity in chromaffin vesicle lysate; assay: Protease inhibitors of β-secretase endoprotease activity in chromaffin vesicle lysate (Z*Val-Lys-Met-MCA cleavage, with aminopeptidase M); type: biochemical, bovine; conditions: for inhibition of β-secretase endoprotease activity in the lysate, in words: chromaffin vesicle lysate; for % CONTROL (β-secretase endoprotease activity): pH 5.5, with aminopeptidase M, activity as % of no-inhibitor control
Description: The β-secretase endoprotease activity was identified by incubating the chromaffin vesicle lysate (2-10 μl of 10-20 mg protein/ml) with the Z*Val-Lys-Met-MCA substrate (100 μM final concentration) and detecting AMC fluorescence. The chromaffin vesicle lysate was prepared as described in Example I. The endoprotease activity was determined as a function of pH by varying the pH of the incubation solution between 3.0 to 8.0 in 0.5 pH increments. Citric acid, sodium phosphate, and Tris-HCl buffers (100 mM final concentration) were used to adjust the pH of the incubation solutions between 3.0 to 5.5, 6.0 to 7.5, and 8.0, respectively. Duplicate samples at each pH increment (100 μl each) were distributed among 22 wells in a covered microtiter well plate and incubated at 37° C. for 8 hours in a water bath.
As discussed above, endoprotease cleavage between the Met-MCA bond in the Z*Val-Lys-Met-MCA substrate produces fluorescent AMC, but endoprotease cleavage between the Lys-Met or Val-Lys bonds in that substrate produces non-fluorescent Lys-Met-MCA and Met-MCA peptides. To insure that the latter two endoprotease cleavages were detected, aminopeptidase M (20 μg/ml final concentration, BOEHRINGER […]) was added to each incubation solutions to produce fluorescent AMC from the Lys-Met-MCA and Met-MCA peptides. Prior to adding the aminopeptidase M, each incubation solution was adjusted to a pH 8.3 using Tris-HCl because aminopeptidase M functions at a basic pH. A second incubation at 37° C. for 1 hour in the water bath was conducted to complete the aminopeptidase M reaction.
Upon termination of that second incubation, AMC fluorescence was assayed using a fluorometer (IDEXX fluorometer, FCA Fluorescence Concentration Analyzer, cat. no. 10-105-2, BAXTER HEALTH CARE CORP., Mundelein, Ill.) at excitation and emission wavelengths of 365 and 450 nm, respectively. Standard AMC concentrations were also measured to quantitate relative fluorescence with the molar amount (pmol) of AMC generated by the secretase. The resulting AMC fluorescence reflects the endoprotease activity in cleaving either the Met-MCA, Lys-Met. and Val-Lys bonds in the Z*Val-Lys-Met-MCA substrate.
The effect of the aminopeptidase M and the basic pH buffer used in the β-secretase endoprotease activity assay was determined. The assay was conducted as described in Example VIII with DTT. Three assays were conducted, one with aminopeptidase M in its basic pH buffer, another with the basic pH buffer but not aminopeptidase M, and a third without either the buffer or the aminopeptidase M. Briefly, the chromaffin vesicle lysate and the substrate Z*Val-Lys-Met-MCA were incubated for 30 minutes at a specified pH and the resulting fluorescence measured. The aminopeptidase M in the basic pH buffer or that buffer alone (final concentration of 75 mM Tris-HCl pH 8.2) was added to the assay and incubated an additional 60 minutes at 37° C. […] The assay conducted with aminopeptidase M and its basic pH buffer and that of the control assay having just the basic pH buffer produced approximately the same amount of fluorescence.
The effect of various protease inhibitors on β-secretase endoprotease activity in the lysate was determined at the pH optimum 5.5 in the assay described in Example IX containing aminopeptidase M. Protease inhibitors specific for various protease classes were used. The protease inhibitor was added to each assay at the start of the reaction at the appropriate concentration. The extent of inhibition was expressed as a percentage of the activity without the inhibitor (control). Triplicate assays varied by less than 10%.

[6] = test system: chromaffin cells; assay: Aβ-peptide secretion by primary chromaffin cell cultures (RIA of Aβ1-40 in media); type: cell-based, bovine; conditions: 15 minutes
Description: Primary chromaffin cell cultures containing approximately 2 million cells in each culture were produced using established methods (Hook et al., ibid.; and Tezapsidis et al., ibid.). Exocytosis of the contents of the vesicles in such cells was induced by exposing the cells to KCl (50 mM) or nicotine (10 μM) for 15 minutes.

O[C@H](CS)[C@H](O)CS (racemic) [DTT, dithiothreitol]
increase in the β-secretase endoprotease activity [1]: approximately 5 fold
RATIO of activities (with/without DTT) ([2]; Adrenal Medulla Homgenate): 4.7
RATIO of activities (with/without DTT) ([2]; Pellet from 1st 8,800 rpm Centrifugation (crude vesicle fraction)): 3.2
RATIO of activities (with/without DTT) ([2]; Pellet from 2nd 8,800 rpm Centrifugation (washed vesicle fraction)): 6.3
RATIO of activities (with/without DTT) ([2]; Pellet from 1,500 rpm Centrifugation (nuclear fraction)): 11.6
RATIO of activities (with/without DTT) ([2]; Pellet from 25,000 rpm Discontinuous Gradient Centrifugation (vesicle fraction)): 11.0

c1cnc2c(c1)ccc1cccnc12 [1,10 Phenanthroline]
inhibition of Peak I activity, in words [3]: significantly inhibited
Peak I (%) of control ([3]; inhibitor 500 μM): 31%
inhibition of Peak II activity, in words [4]: only slightly inhibited
Peak II (%) of control ([4]; inhibitor 500 μM): 72%

CC(C)C[C@H](NC(=O)[C@@H](NC(=O)N[C@@H](Cc1ccccc1)C(=O)O)[C@@H]1CCN=C(N)N1)C(=O)N[C@H](C=O)Cc1ccccc1 [Chymostatin]
inhibition of β-secretase endoprotease activity in the lysate, in words [5]: greatly inhibited
% CONTROL (β-secretase endoprotease activity) ([5]; inhibitor 10 μM): 11%
inhibition of Peak I activity, in words [3]: maximally inhibited; also recorded: inhibited less than that of the lysate
Peak I (%) of control ([3]; inhibitor 10 μM): 0%
inhibition of Peak II activity, in words [4]: maximally inhibited; also recorded: inhibited less than that of the lysate
Peak II (%) of control ([4]; inhibitor 10 μM): 35%

CC(C)CCNC(=O)[C@H](CC(C)C)NC(=O)[C@H]1O[C@@H]1C(=O)O [E64c]
inhibition of β-secretase endoprotease activity in the lysate, in words [5]: completely inhibited
% CONTROL (β-secretase endoprotease activity) ([5]; inhibitor 10 μM): 0%
inhibition of Peak I activity, in words [3]: maximally inhibited; also recorded: completely inhibited
Peak I (%) of control ([3]; inhibitor 10 μM): 0%
inhibition of Peak II activity, in words [4]: maximally inhibited; also recorded: completely inhibited
Peak II (%) of control ([4]; inhibitor 10 μM): 0%

O=C(O)CN(CCN(CC(=O)O)CC(=O)O)CC(=O)O [EDTA, ethylenediaminetetraacetic acid]
% CONTROL (β-secretase endoprotease activity) ([5]; inhibitor 1 mM): 100%
Peak I (%) of control ([3]; inhibitor 1 mM): 99%
Peak II (%) of control ([4]; inhibitor 1 mM): 138%

O=C(O)CN(CCOCCOCCN(CC(=O)O)CC(=O)O)CC(=O)O [EGTA]
% CONTROL (β-secretase endoprotease activity) ([5]; inhibitor 1 mM): 99%
Peak I (%) of control ([3]; inhibitor 1 mM): 108%
Peak II (%) of control ([4]; inhibitor 1 mM): 142%

[Cl-].[K+] [KCl, potassium chloride]
increase in the concentration of Aβ1-40 peptide in the media relative to control media ([6]; KCl 50 mM): approximately 350 fold

CC(=O)N[C@@H](CC(C)C)C(=O)N[C@@H](CC(C)C)C(=O)N[C@H](C=O)CCCNC(=N)N [Leupeptin]
inhibition of β-secretase endoprotease activity in the lysate, in words [5]: completely inhibited
% CONTROL (β-secretase endoprotease activity) ([5]; inhibitor 100 μM): 0%
inhibition of Peak I activity, in words [3]: maximally inhibited; also recorded: completely inhibited
Peak I (%) of control ([3]; inhibitor 100 μM): 0%
inhibition of Peak II activity, in words [4]: maximally inhibited; also recorded: completely inhibited
Peak II (%) of control ([4]; inhibitor 100 μM): 0%

O=S(=O)(F)Cc1ccccc1 [PMSF, phenylmethylsulfonyl fluoride]
inhibition of β-secretase endoprotease activity in the lysate, in words [5]: significantly inhibited
% CONTROL (β-secretase endoprotease activity) ([5]; inhibitor 100 μM): 58%

CC(C)CC(=O)N[C@H](C(=O)N[C@H](C(=O)N[C@@H](CC(C)C)[C@@H](O)CC(=O)N[C@@H](C)C(=O)N[C@@H](CC(C)C)[C@@H](O)CC(=O)O)C(C)C)C(C)C [Pepstatin A] (Isovaleryl-VV[Sta]A[Sta]-OH)
inhibition of β-secretase endoprotease activity in the lysate, in words [5]: slightly inhibited
% CONTROL (β-secretase endoprotease activity) ([5]; inhibitor 10 μM): 78%
inhibition of Peak I activity, in words [3]: did not significantly inhibit; also recorded: slightly inhibited
Peak I (%) of control ([3]; inhibitor 100 μM): 85%
inhibition of Peak II activity, in words [4]: did not significantly inhibit; also recorded: increased the activity
Peak II (%) of control ([4]; inhibitor 100 μM): 132%

CN1CCCC1c1cccnc1 (centres unmarked) [nicotine]
increase in the concentration of Aβ1-40 peptide in the media relative to control media ([6]; nicotine 10 μM): ~550 fold

O=C(O)c1cc[c]([Hg][OH])cc1 [pHMB]
inhibition of β-secretase endoprotease activity in the lysate, in words [5]: greatly inhibited
% CONTROL (β-secretase endoprotease activity) ([5]; inhibitor 1 mM): 35%
inhibition of Peak I activity, in words [3]: slightly inhibited; also recorded: inhibited less than that of the lysate
Peak I (%) of control ([3]; inhibitor 1 mM): 67%
inhibition of Peak II activity, in words [4]: slightly inhibited; also recorded: inhibited less than that of the lysate
Peak II (%) of control ([4]; inhibitor 1 mM): 68%
